Laboratory results as given in patent US12344863B2, “Method of producing stem cell-derived endothelial cells and uses thereof” (Emory University, priority 2016, dated 2025).

Tests used:
hESCs (H9) = experiment: Mesodermal differentiation of hPSCs with CHIR99021 (qRT-PCR, flow cytometry); type: cell-based, human
Description: A clinically compatible stepwise protocol was developed which follows endothelial development (FIG. 1A). To develop a fully defined system, KnockOut™ Serum Replacement substituted for animal serum and feeder cells. As a first step, two coating materials were compared (collagen and Matrigel™), and induced differentiation of hPSCs into the mesodermal lineage using CHIR99021, a GSK3β inhibitor which mimics Wnt activation. hESCs (H9) were plated onto dishes coated with 0.01% collagen or 10% Matrigel™ and were cultured for 3, 5, and 7 days in hESC medium with or without 3 µM CHIR99021. […] Flow cytometry analyses confirmed that the percentage of KDR+ cells was highest (51.2±4.3%) under these conditions.
The hESCs (H1, H7, and H9) and hiPSCs (BJ1 and PGP1 obtained from Dr. George Daley) were cultured in mTeSR™ 1 (STEMCELL Technologies) on 5% matrigel at 37° C., 5% CO2. For directed differentiation, enzymatically dissociated clumps of hPSCs (lower than passage 60) were cultured on 0.01% collagen-coated plates in DMEMF-12 including 20% Serum Replacement (SR) with or without addition of specific differentiation factors for 7-10 days. hPSCs were cultured on collagen coated plates for an additional 14 days.

[1] = test system: mesodermally differentiated hPSCs; experiment: Endothelial differentiation of mesodermally differentiated hPSCs with or without DLL4 (qRT-PCR, flow cytometry); type: cell-based, human
Excerpt: Flow cytometric analyses also confirmed increases in PECAM1, CDH5, and VWF (FIG. 1D) and decreases in PTPRC (CD45), CD34, KIT (CD117), and PROM1 (CD133). […] Similar results were found in three hESC lines (H1, H7, and H9) and two hiPSC lines (BJ1 and PGP1) by flow cytometry and qRT-PCR. […] Immunocytochemistry confirmed expression of EC markers VWF and CDH5 as well.

## Cc1cnc(-c2cnc(NCCNc3ccc(C#N)cn3)nc2-c2ccc(Cl)cc2Cl)[nH]1 [CHIR99021, 6-[[2-[[4-(2,4-dichlorophenyl)-5-(5-methyl-1H-imidazol-2-yl)-2-pyrimidinyl]amino]ethyl]amino]-3-pyridinecarbonitrile]
hESCs (H9); hESCs (H9), collagen coating, 3 µM CHIR99021, 3 days, flow cytometry
  percentage of KDR+ cells: 51.2±4.3%
hESCs (H9); qRT-PCR
  POU5F1 (OCT4) expression: reduced
  expression of definitive ectoderm (SOX1) and endoderm (FOXA2) markers: not significantly changed
hESCs (H9); qRT-PCR, collagen coating and CHIR99021 treatment for 3 days, vs Matrigel, 5 and 7 days, no CHIR99021
  T (Brachyury) and KDR transcripts: most highly expressed

## DLL4: polypeptide comprising a mature human or mammalian peptide sequence encoded by a DLL4 gene; a Notch ligand
[1]; day 14, with vs without DLL4
  PECAM1, CDH5, and VWF by flow cytometry: increases
  PTPRC (CD45), CD34, KIT (CD117), and PROM1 (CD133) by flow cytometry: decreases
[1]; qRT-PCR, day 14, addition of DLL4
  KDR, PECAM1, CDH5 and VWF expression: further increased
